Results on 1 compound are retold here after patent US4743589A, “Treatment of endometriosis” (Roussel UCLAF, priority 1979, dated 1988).

The subject of one experiment is ovarian steroidogenosis. Briefly: inhibitory activity on ovarian steroidogenosis in women (seric progesterone by radioimmunoassay). Conditions: for seric level of progesterone, reduction compared to the controls: 500 μg intranasal at 8 A.M. and 5 P.M. of one luteal-phase day, typical case (sheet 3); for level of progesterone as % of pretreatment cycles (100%): 12 cycles. The class given is in vivo. The protocol:
The study was conducted for 6 consecutive cycles consisting of 2 pretreatment cycles, 2 treatment cycles and 2 post-treatment cycles. […] Daily blood samples were taken between 4 and 6 P.M. to measure seric levels of LH, FSH, progesterone and estradiol which were determined by radioimmuno-logictests with double antibodies. The antibodies to measure LH and FSH were furnished by the National Pituitory Agency of N.I.H. of Bethesda, Md.
Estradiol and progesterone were measured with highly specific antibodies developed against 7-(0-carboxymethyl)-oxime of estradiol and 12-(0-carboxymethyl)-oxime of progesterone, respectively [3H] 17β-estradiol and ^125 I-progesterone-12-[0-carboxymethyl)-oxime]used as tracers. The serum was extracted with benzene and the steroids were separated with a LH-20 column before the determination. The radioimmunological results were exploited by the program derived from model II of Rodbard and Lewald as in Example 1 and the statistical significance was measured by the multiple level test of Ducan-Kramer of Example 1. The results shown in the graphs of sheets 3 to 5 of the Figures.

The test system of experiment [1] is testicular steroidogenosis. As to the kind of experiment: inhibitory activity on testicular steroidogenosis in a patient with prostate cancer. Conditions: intranasal 500 μg twice a day. Format: in vivo, human. An excerpt: The inhibitory activity of [D Ser (tbu)^6 des Gly NH2^10 ] […] The results are reported in the graphs of sheet 2 of the Figures.
Experiment [2] deals with testicular steroidogensis. As to the kind of experiment: inhibitory activity against testicular steroidogenesis in men in good health (seric LH, FSH and steroids by radioimmunoassay). Format: in vivo. The protocol: The said product was administered intranasally at a dose of 500 μg in a few drops of distilled water at 8 A.M. on the third day of the test. For 2 days prior to the treatment and for 6 days after the treatment, samples of blood were taken daily at 8 A.M., 3 P.M. and 10 P.M. On the day of administration of the LH-RH agonist, blood samples were taken at 11 A.M. and 6 P.M.
The series concentrations of LH and FSH were measured by radioimmuno-logic dosages with double antibodies and the antibodies for measuring LH and FSH were furnished by the National Pituitary Agency of N.I.H. in Bethesda, Md. The seric concentrations of steroids was measured by radioimmuno-logic dosages in which one ml of serum was extracted with ether and the steroids were separated on a LH-20 column before measuring with radioimmuno-logic dosages. The radioimmuno-logic dosage results were determined by a program derived from model II of Rodbard et al [Second Karolinska Symposium on Research Methods in Reproductive Endrocrinology, Diczfalusky Editor, Copenhague (1970), p. 79-103]. The statistical significance was determined by the "multiple level test" of Duncan-Kramer [Kramer, Biometrics, Vol. 12 (1956), p. 307]. The results are shown in the graphs on sheet 1 of the Figures filed herewith.

[3] abbreviates: 12 cycles of treatment (sheet 5).

In the case of `CCNC(=O)[C@@H]1CCCN1C(=O)[C@H](CCCNC(=N)N)NC(=O)[C@H](CC(C)C)NC(=O)[C@@H](COC(C)(C)C)NC(=O)[C@H](Cc1ccc(O)cc1)NC(=O)[C@H](CO)NC(=O)[C@H](Cc1c[nH]c2ccccc12)NC(=O)[C@H](Cc1c[nH]cn1)NC(=O)[C@@H]1CCC(=O)N1` [[D Ser (tbu)^6 des Gly NH2^10]LH-RH ethylamide], the “seric level of progesterone, reduction compared to the controls” value came out at 13% in the experiment with ovarian steroidogenosis (first cycle of treatment) and 34% in the experiment on ovarian steroidogenosis (second cycle of treatment). In the experiment with ovarian steroidogenosis (setting [3]), the “level of progesterone, reduction compared to the controls” value worked out at 46%. In addition, the “scale (range) of the level of progesterone compared to the controls” value with ovarian steroidogenosis (setting [3]) is 13 to 127%. Also, the “level of progesterone as % of pretreatment cycles (100%)” value worked out at 99% with ovarian steroidogenosis (cycles of post-treatment) and 46% with ovarian steroidogenosis (cycles of treatment). Also, the “level of androgenic steroids in plasma” value in experiment [1] is reported as “diminution”. The level of testosterone entry in experiment [1] (two weeks of treatment) was “stabilized at a very low level”. Further, in experiment [2] (human, single intranasal dose 500 μg), the “day after administration on which the steroid level returned to normal” value is “fourth day”. Further, the “time to return of LH and FSH to normal levels after administration” value in experiment [2] (men, intranasal 500 μg) lay within 8 to 12 h. Moreover, in experiment [2] (men, intranasal 500 μg, day after treatment, different subjects, elevated from 20 to 35), the seric concentration of 17β-estradiol after the deferred elevation lay in the range of 100 to 250 pg/mL. In experiment [2] (men, intranasal 500 μg, day of treatment), the “seric concentration of pregnenolone, 17-OH-pregnenolone, progesterone, 17-OH-progesterone, Δ5-androstene-3β,17β-diol and testosterone on the day of treatment” value is listed as “increased”.
